We go through two molecules from US20240174632A1, “INHIBITING HUMAN INTEGRIN (ALPHA-4) (BETA-7)” (Morphic Therapeutic, Inc., priority 2019, published 2024).

The target in one assay is T1, integrin α4β7 (Homo sapiens, UniProt P13612+P26010).
T1 sequence (P13612 34-1032): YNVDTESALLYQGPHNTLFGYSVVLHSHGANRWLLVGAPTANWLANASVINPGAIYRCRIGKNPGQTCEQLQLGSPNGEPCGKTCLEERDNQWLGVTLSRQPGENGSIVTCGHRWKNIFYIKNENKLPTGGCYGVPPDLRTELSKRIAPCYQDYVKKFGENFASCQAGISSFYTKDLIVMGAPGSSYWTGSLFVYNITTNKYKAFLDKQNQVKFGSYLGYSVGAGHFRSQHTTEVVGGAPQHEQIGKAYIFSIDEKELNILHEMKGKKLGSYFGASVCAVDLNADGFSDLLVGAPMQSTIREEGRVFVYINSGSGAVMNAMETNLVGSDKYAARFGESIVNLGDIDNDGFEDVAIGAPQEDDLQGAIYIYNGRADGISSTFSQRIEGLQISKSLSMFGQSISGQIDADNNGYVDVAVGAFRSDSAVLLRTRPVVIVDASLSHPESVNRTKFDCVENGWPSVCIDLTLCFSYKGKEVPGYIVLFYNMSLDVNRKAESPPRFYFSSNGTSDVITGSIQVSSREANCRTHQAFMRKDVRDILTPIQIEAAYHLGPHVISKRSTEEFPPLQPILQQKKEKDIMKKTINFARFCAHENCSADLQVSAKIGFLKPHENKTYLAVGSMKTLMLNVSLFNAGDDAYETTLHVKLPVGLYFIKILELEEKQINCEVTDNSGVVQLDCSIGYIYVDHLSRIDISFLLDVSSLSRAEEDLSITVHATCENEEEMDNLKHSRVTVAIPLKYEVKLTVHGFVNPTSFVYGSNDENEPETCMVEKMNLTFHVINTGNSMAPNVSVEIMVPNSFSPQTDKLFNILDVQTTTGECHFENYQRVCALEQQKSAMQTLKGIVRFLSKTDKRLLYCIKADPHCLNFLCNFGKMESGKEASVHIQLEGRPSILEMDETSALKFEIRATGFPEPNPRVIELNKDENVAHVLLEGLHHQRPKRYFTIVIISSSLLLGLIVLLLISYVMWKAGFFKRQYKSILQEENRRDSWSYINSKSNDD
T1 sequence (P26010 20-798): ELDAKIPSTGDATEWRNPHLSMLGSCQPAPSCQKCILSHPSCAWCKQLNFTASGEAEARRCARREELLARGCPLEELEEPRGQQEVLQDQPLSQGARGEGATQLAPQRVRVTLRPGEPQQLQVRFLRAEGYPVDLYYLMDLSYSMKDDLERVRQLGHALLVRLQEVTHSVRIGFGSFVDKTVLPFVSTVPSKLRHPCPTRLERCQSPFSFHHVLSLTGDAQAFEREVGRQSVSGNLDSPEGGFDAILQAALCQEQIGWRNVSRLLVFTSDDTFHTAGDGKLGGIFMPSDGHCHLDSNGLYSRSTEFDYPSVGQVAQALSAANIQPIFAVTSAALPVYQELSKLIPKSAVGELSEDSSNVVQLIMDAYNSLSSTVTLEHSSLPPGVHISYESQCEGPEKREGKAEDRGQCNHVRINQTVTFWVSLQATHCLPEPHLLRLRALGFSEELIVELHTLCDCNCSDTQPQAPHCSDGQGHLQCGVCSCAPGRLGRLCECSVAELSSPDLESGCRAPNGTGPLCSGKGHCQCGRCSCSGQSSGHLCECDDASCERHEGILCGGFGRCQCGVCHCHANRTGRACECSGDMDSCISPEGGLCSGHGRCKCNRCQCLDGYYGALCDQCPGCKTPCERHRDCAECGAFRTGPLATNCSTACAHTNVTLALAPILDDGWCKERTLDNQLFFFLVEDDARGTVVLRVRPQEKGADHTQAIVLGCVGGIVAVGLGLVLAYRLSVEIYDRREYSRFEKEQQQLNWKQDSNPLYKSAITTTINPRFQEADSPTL
Put plainly: Fluorescence Polarization (FP) assay for α4β7 binding, competition with fluorescein-labeled peptide. To be noted: 6.5 nM integrin α4β7, 3 nM fluorescein-labeled peptide, 2 mM MnCl2; Tables 3A, 3B, 4; read-out: FP Assay (Example 5) IC50. The protocol:
(§1) Three in vitro assays were used to examine the α4β7 mechanistic process used by cells: 1) ligand:receptor affinity, 2) the avidity of those interactions on a cell's surface, and 3) how those interactions fare under an imposing force. In Example 5, a Fluorescence Polarization (FP) assay is used to measure compound activity through binding competition with the fluorescein-labeled peptide. In Example 6, the potency of compounds against α4β7 is measured in the cell-based ligand binding assay (LBA), using RPMI 8866 cells incubated with the compound samples in competition with soluble MAdCAM-1 ligand. In Example 7, activity of compounds is evaluated in a cell adhesion assay that mechanistically tests what occurs in vivo when trafficking cells utilize α4β7 to adhere to MAdCAM-1 expressing HEVs of the gut during the extravasation process. […] Unattached cells are removed and the remaining adherent cells are quantified.
Fluorescence Polarization (FP) assays were used to measure compound activity through binding competition with the fluorescein-labeled peptide […]{Lys(FITC)}. […] After the fluorescein-labeled peptide was added, the assay was incubated at 22° C. for 1 hour and fluorescence polarization was measured. IC50 values were determined by non-linear regression, four-parameter curve fitting.
(In fluorescence polarisation assays a small probe gives low polarisation when free and higher when bound to something large.)

Assay [1] deals with T2, α4β7 (Homo sapiens, UniProt P13612+P26010).
T2 construct: endogenous in cells; host or cells: RPMI 8866 cells
T2 sequence (P13612 34-1032): T1 sequence (P13612 34-1032)
T2 sequence (P26010 20-798): T1 sequence (P26010 20-798)
The experiment in a line: Cell-based ligand binding assay (LBA), RPMI 8866 cells, competition with soluble MAdCAM-1-Fc. To be noted: MAdCAM-1-Fc Dylight 650, flow cytometry, Tables 3A, 3B, 4, read-out: LB Assay (Example 6) IC50. The procedure:
as §1
5 ul of 33 nM MAdCAM-1-Fc fluorescently labeled with Dylight 650 in 50 mM HEPES pH 7.3, 150 mM sodium chloride, and 1% bovine serum albumin was added to the cells. […] Fluorescence intensity for each cell was measured via flow cytometry. […] Median fluorescence intensity for Dylight 650 was determined for each sample and concentration-response curves were analyzed for IC50 values using 4-parameter non-linear regression analysis.
In general terms: Flow cytometry measures light scatter and fluorescence of single cells or particles in a stream.

Assay [2] addresses T2, α4β7. The experiment in a line: Cell adhesion assay, RPMI8866 cells adhering to MAdCAM coated plates. It is filed as cell-based. To be noted: RPMI8866 cells on recombinant human MAdCAM coated plates; Tables 3A, 3B, 4; read-out: CA Assay (Example 7) IC50. The procedure: as §1, with “quantified. […]” for “quantified.”
To each well of a 96 well plate, 100 ug of recombinant human MAdCAM in 100 ul PBS is added and incubated overnight at 4° C. […] Plate is incubated on shaker for 2 minutes at 200 RPM followed by another 8 minutes off shaker before having the luminescence read on a Biotek Citation 5 plate reader. Raw data is converted to % inhibition compared to bottom of curve and analyzed using a 4-parameter non linear curve in Prism to determine IC50 and IC90.

By IC50 is commonly meant the midpoint of a concentration-inhibition curve. For `COc1ccc(C)c(-c2cc(C)c(F)c([C@H](CC(=O)O)NC(=O)C(CC(C)C)n3cc(CCN4CCC4)c(C(F)(F)F)cc3=O)c2)c1C` (single isomer, unassigned) [AG-P2], the IC50 at integrin α4β7 is below 10 nM; on α4β7 [1] it was at most 10 nM.

As to `Cc1cc(=O)n([C@@H](CC(C)C)C(=O)N[C@@H](CC(=O)O)c2cc(-c3c(C)cccc3C)cc(F)c2F)cc1CCN1CC(F)C1` [D-P2, (3S)-3-(4,5-difluoro-2′,6′-dimethylbiphenyl-3-yl)-3-(2-(5-(2-(3-fluoroazetidin-1-yl)ethyl)-4-methyl-2-oxopyridin-1(2H)-yl)-4-methylpentanamido)propanoic acid], the IC50 was below 10 nM at integrin α4β7 and below 5 nM on α4β7 [2].
